Values after ≈ are worked out from the molar mass of the structure shown.
Legend:
[1] = system: Mycobacterium smegmatis strain (mc2155); experiment: Resazurin microplate MIC on Mycobacterium smegmatis; format: cell-based; conditions: mc2155, 7H9 medium, 37° C., 48 hours, resazurin; for MIC: Mycolicibacterium smegmatis, MC2155, 48 h, read-out: MIC (μg/mL) Mycobacterium smegmatis
[2] = system: Mycobacterium bovis BCG strain; experiment: microbe, parasite or virus in culture; format: cell-based; conditions: for MIC: Mycobacterium tuberculosis variant bovis BCG, BCG, 168 h, read-out: MIC (μg/mL) Mycobacterium bovis BCG, BCG strain, 7H9 medium, 37° C., 168 hours, resazurin
[3] = system: Mycobacterium tuberculosis H37Ra strain; experiment: microbe, parasite or virus in culture; format: cell-based; conditions: for MIC: Mycobacterium tuberculosis, H37RA, 168 h, read-out: MIC (μg/mL) Mycobacterium tuberculosis H37Ra
[4] = system: Mycobacterium tuberculosis (H37Rv); conditions: reports, in words; cited from earlier work

Question: For `Cc1c(C(=O)NN2CCCCC2)nn(-c2ccc(Cl)cc2Cl)c1-c1ccc(Cl)cc1` [Rimonabant, rimonabant, reference compound], which MIC [1] is on record?
Answer: 17 µg/mL (≈ 36.6 µM)

Question: What about the “MIC (μg/mL) Mycobacterium smegmatis” value [1] of the same molecule?
Answer: 16.99 µg/mL (≈ 36.6 µM)

Question: And the “MIC (μg/mL) Mycobacterium bovis BCG” value ([2]; BCG strain, 7H9 medium, 37° C., 168 hours, resazurin)?
Answer: 33.99 µg/mL (≈ 73.3 µM)

Question: And the MIC [2]?
Answer: 34 µg/mL (≈ 73.3 µM)

Question: What about the “MIC (μg/mL) Mycobacterium tuberculosis H37Ra” value [3] of the same molecule?
Answer: 16.99 µg/mL (≈ 36.6 µM)

Question: And the MIC [3]?
Answer: 17 µg/mL (≈ 36.6 µM)

Question: And the “effect against Mycobacterium tuberculosis (H37Rv)” value [4]?
Answer: significant effect

Question: Which results are given for `Cc1c(C(=O)N2CCN(C(=O)C34CC5CC(CC(C5)C3)C4)CC2)nn(-c2ccc(Cl)cc2Cl)c1-c1ccc(Cl)cc1` [Compound 170, ((3r,5r,7r)-adamantan-1-yl)(4-(5-(4-chlorophenyl)-1-(2,4-dichlorophenyl)-4-methyl-1H-pyrazole-3-carbonyl)piperazin-1-yl)methanone]?
Answer: MIC [1]: > 293 µg/mL; MIC [2]: > 293 µg/mL; MIC [3]: > 293 µg/mL

From patent publication US11655238B2 (priority 2018, dated 2023)
